According to patent US7595171B2 (Sinotrade Technology Limited, priority 2005, dated 2009):
Like-named read-outs stand apart in the source and are kept apart here. Marks after values point to notes of the source that are not given here.

Legend:
[1] = system: Weed; assay: Pre-emergence herbicide trial: weed control; assay type: in vivo
[2] = system: A. palaestina; assay: Seed germination after gibberellic acid pre-soak; assay type: in vivo, Adonis palaestina
Protocol: Adonis […] populations were evaluated for seed viability and germination. Although seed viability is fair (about 30 to about 70%), germination is very low.

[3] = system: Adonis; assay: Pre-emergence herbicide trial: Adonis seedling establishment; assay type: in vivo, Adonis palaestina; details: for Adonis seedling density: after graminicide stress treatment
[4] = system: Weed; assay: Container trials: weed control at reduced metribuzin level; assay type: in vivo
[5] = system: Adonis seedlings
Text: Seedlings emerging from metribuzin-treated soil were sprayed with a grass-specific herbicide [graminicide; (RS)-7-(4,6-dimethoxypyrimidin-2-ylthio)-3-methyl-2-benzofuran-1(3H)-one] at the seed leaf stage; this would normally be expected to “check” the seedlings (i.e.; cause a degree of non-lethal stress) when applied at the usual time (three true leaf stage).

[6] = system: Rainbow trout; assay: Rainbow trout feeding trial: astaxanthin levels in fillets before and after freezing and smoking; assay type: in vivo; details: averaged over three fillet zones
Protocol: (§1) Rainbow trout fed synthetic or Adonis-derived astaxanthin in a feeding trial were harvested 63 days after the feeding trial started and the astaxanthin levels were examined spectrophotometrically (Minolta Chroma Meter) and chemically (by HPLC analysis after lipid removal from the flesh extract) before and after freezing (2 months) and smoking. The initial astaxanthin levels in the feed were adjusted to achieve similar levels of pigmentation of the fish before treatments were carried out. Because pigment levels vary along the length of the fish, measurements were carried out at three positions along each fish (head, mid-body and tail).

[7] = as above; assay type: in vivo; details: rainbow trout, fillet (flesh), oral, Control treatment, averaged over three fillet zones, read-out: HPLC astaxanthin level Average
Protocol: as §1

[8] = system: Sclerotinia sclerotiorum; assay: Dosage effect of pure cardenolides on pathogen growth (Sclerotinia); assay type: cell-based; details: pure cardenolide
Protocol: Two different cardenolides (cymarin and strophanthidin) were assessed for their dosage effect on pathogen response.

[9] = system: Adonis; details: at high pH
Protocol: Container trials were conducted on the effect of sand content and soil pH on metribuzin-associated Adonis mortality.

[10] = 25 % manufacturer's recommended rate
[11] = 50 % manufacturer's recommended rate
[12] = 12.5 % manufacturer's recommended rate

COC(=O)NS(=O)(=O)c1ccc(N)cc1 [Asulox ®, methyl(4-aminophenyl)sulfonylaminoformate]
Weed density [1, 10]: 86 % cover
Weed density [1, 11]: 74 % cover
Weed density ([1]; 100 % manufacturer's recommended rate): 87 % cover
weed control ([1]; pre-emergence herbicide): did not achieve much weed control

C=C1C[C@]23C[C@@]1(O)CC[C@H]2[C@@]12C=C[C@H](O)[C@@](C)(C(=O)O1)[C@H]2[C@@H]3C(=O)O [Gibberellic acid, gibberellic acid]
germination ([2]; 24-hour incubation with GA in ethanol at room temperature): further improved germination
% germination ([2]; 1000 ppm, pre-soak 24 hours, 4 °C): 4.3%
% germination ([2]; 1000 ppm, pre-soak 24 hours, 16 °C): 8.7%
% germination ([2]; 1000 ppm, pre-soak 48 hours, 4 °C): 13.7%
% germination ([2]; 1000 ppm, pre-soak 48 hours, 16 °C): 22.3%
% germination ([2]; 2000 ppm, pre-soak 24 hours, 4 °C): 10.7%
% germination ([2]; 2000 ppm, pre-soak 24 hours, 16 °C): 12.6%
% germination ([2]; 2000 ppm, pre-soak 48 hours, 4 °C): 20.4%
% germination ([2]; 2000 ppm, pre-soak 48 hours, 16 °C): 28.7%
% germination ([2]; 3500 ppm, pre-soak 24 hours, 4 °C): 21.4%
% germination ([2]; 3500 ppm, pre-soak 24 hours, 16 °C): 25.7%
% germination ([2]; 3500 ppm, pre-soak 48 hours, 4 °C): 28.7%
% germination ([2]; 3500 ppm, pre-soak 48 hours, 16 °C): 45.7%
% germination ([2]; 5000 ppm, pre-soak 24 hours, 4 °C): 28.0%
% germination ([2]; 5000 ppm, pre-soak 24 hours, 16 °C): 34.7%
% germination ([2]; 5000 ppm, pre-soak 48 hours, 4 °C): 40.3%
% germination ([2]; 5000 ppm, pre-soak 48 hours, 16 °C): 64.7%
germination ([2]; pre-soaking seed in 5000 ppm for 24 hours before sowing): 64.7%

CSc1nnc(C(C)(C)C)c(=O)n1N [Metribuzin, 4-amino-6-tert-butyl-4,5-dihydro-3-methlythio-1,2,4-triazin-5-one]
Weed density [1, 12]: 85 % cover
Weed density [1, 10]: 79 % cover
Weed density [1, 11]: 56 % cover
Adonis seedling density [3, 12]: 12.1 m^−2
Adonis seedling density [3, 10]: 5.9 m^−2
Adonis seedling density [3, 11]: 1.2 m^−2
safety on Adonis ([3]; pre-emergence herbicide): could be used safely on Adonis
weed control ([4]; 125 g/ha): inadequate
weed control ([4]; 250 g/ha): reasonable weed control
seedling death ([5]; 500 g/ha metribuzin, graminicide sprayed at seed leaf stage): 30%
Adonis density ([5]; Metribuzin 250 g/ha, +Graminicide, −Urea): 97 # plants m^−2
Adonis density ([5]; Metribuzin 250 g/ha, −Graminicide, +Urea): 107 # plants m^−2
Adonis density ([5]; Metribuzin 250 g/ha, −Graminicide, −Urea): 103 # plants m^−2
Adonis density ([5]; Metribuzin 500 g/ha, +Graminicide, +Urea): 94 # plants m^−2
Adonis density ([5]; Metribuzin 500 g/ha, +Graminicide, −Urea): 65 # plants m^−2
Adonis density ([5]; Metribuzin 500 g/ha, −Graminicide, +Urea): 104 # plants m^−2
Adonis density ([5]; Metribuzin 500 g/ha, −Graminicide, −Urea): 98 # plants m^−2
Adonis density ([5]; Metribuzin (pre) + 250 (post) g/ha, +Graminicide, +Urea): 107 # plants m^−2
Adonis density ([5]; Metribuzin (pre) + 250 (post) g/ha, +Graminicide, −Urea): 105 # plants m^−2
Adonis density ([5]; Metribuzin (pre) + 250 (post) g/ha, −Graminicide, +Urea): 102 # plants m^−2
Adonis density ([5]; Metribuzin (pre) + 250 (post) g/ha, −Graminicide, −Urea): 100 # plants m^−2

CC1=C(/C=C/C(C)=C/C=C/C(C)=C/C=C/C=C(C)/C=C/C=C(C)/C=C/C2=C(C)C(=O)C(O)CC2(C)C)C(C)(C)CC(O)C1=O (stereo not drawn) [Synthetic, 3,3′-dihydroxy-β,β-carotene-4,4′-dione]
Spectrophotometric (Hunter a values) Average ([6]; Control treatment, harvested 63 days): 6.5
HPLC astaxanthin level Average ([6]; Frozen (2 months)): 11.2 mg/kg fish
Spectrophotometric (Hunter a values) Average ([6]; Frozen (2 months)): 4.2
HPLC astaxanthin level Average ([6]; Smoked): 14.0 mg/kg fish
Spectrophotometric (Hunter a values) Average ([6]; Smoked): 5.8
concentration at 63 days [7]: 15100 ng/g

NC(N)=O [Urea, urea]
Adonis density ([5]; Metribuzin 0 g/ha, −Graminicide, +Urea): 95 # plants m^−2

CO[C@H]1C[C@H](O[C@H]2CC[C@]3(C=O)[C@H]4CC[C@]5(C)[C@@H](C6=CC(=O)OC6)CC[C@]5(O)[C@@H]4CC[C@]3(O)C2)O[C@H](C)[C@H]1O [cymarin]
growth of Sclerotinia [8]: inhibited

CCOP(=S)(OCC)Oc1nc(Cl)n(C(C)C)n1 [isazophos, O-(5-Chloro-1-(1-methylethyl)-1H-1,2,4-triazol-3-yl) O,O-diethyl phosphorothioate]
interaction with metribuzin (Adonis mortality) [9]: negative interaction

C[C@]12CC[C@H]3[C@@H](CC[C@]4(O)C[C@@H](O)CC[C@]34C=O)[C@@]1(O)CC[C@@H]2C1=CC(=O)OC1 [strophanthidin]
growth of Sclerotinia [8]: inhibited
